The record followed here is patent publication US9394305B2, “Substituted imidazo[1,2-a]pyridine compounds as tropomyosin receptor kinase a (TrkA) inhibitors” (Dr. Reddy's Laboratories Ltd., priority 2014, dated 2016).

The target in this assay is T1, TrkA kinase (Homo sapiens, UniProt P04629).
T1 construct: purchased Upstate, USA
Kind of assay: In vitro TrkA inhibitory activity using TR-FRET assay. Format: biochemical. The method, then: Compounds were screened in the TR-FRET assay with TrkA kinase. 5 ng of TrkA [Upstate, USA] kinase was used for assay. The compound was incubated with the kinase for 30 minutes at 20-35° C. After the incubation, substrate mix [40 nM Ultra light poly GT (Perkin Elmer, USA) and 500 μM ATP] was added. The above reaction was stopped by the addition of 40 mM EDTA after 30 minutes. The Eu-labelled antiphospho-tyrosine antibody [Perkin Elmer, USA] was added at 0.5 nM and the fluorescence emission at 615 nm/665 nm [excitation at 340 nm] was measured. The compounds were initially screened at 100 nM, 1 μM and 10 μM concentrations. The potent compounds with >25% inhibition at 1 μM of TrkA were taken for the full dose response studies. The final DMSO concentration in the assay was […]. For IC50 determination, ⅓^rd serial dilution was made from the 20 mM DMSO stock solution. 2 μl of these were transferred to the test wells containing 20 μl reaction mixture [Total reaction volume 22 μl]. The fluorescence was measured in Perkin Elmer Wallac 1420 Multilabel Counter Victor 3. The IC50 was determined by fitting the dose response data to a sigmoidal curve fitting equation using GraphPad Prism software version 5.
Background: In TR-FRET formats the signal depends on donor and acceptor labels being close together.

Setting [1] is: 5 ng TrkA, 500 μM ATP, values given as bins, read-out: TrkA inhibition in-vitro IC50.
The mark [2] stands for this setting: bin with mixed units (lower bound nM, upper bound μM), read-out: TrkA inhibitory activity in-vitro IC50.

SMILES strings stand for the structures. Where two headings read alike, the source gives them in different places. Bounds are passed on as bounds.

T1 sequence (P04629 33-796): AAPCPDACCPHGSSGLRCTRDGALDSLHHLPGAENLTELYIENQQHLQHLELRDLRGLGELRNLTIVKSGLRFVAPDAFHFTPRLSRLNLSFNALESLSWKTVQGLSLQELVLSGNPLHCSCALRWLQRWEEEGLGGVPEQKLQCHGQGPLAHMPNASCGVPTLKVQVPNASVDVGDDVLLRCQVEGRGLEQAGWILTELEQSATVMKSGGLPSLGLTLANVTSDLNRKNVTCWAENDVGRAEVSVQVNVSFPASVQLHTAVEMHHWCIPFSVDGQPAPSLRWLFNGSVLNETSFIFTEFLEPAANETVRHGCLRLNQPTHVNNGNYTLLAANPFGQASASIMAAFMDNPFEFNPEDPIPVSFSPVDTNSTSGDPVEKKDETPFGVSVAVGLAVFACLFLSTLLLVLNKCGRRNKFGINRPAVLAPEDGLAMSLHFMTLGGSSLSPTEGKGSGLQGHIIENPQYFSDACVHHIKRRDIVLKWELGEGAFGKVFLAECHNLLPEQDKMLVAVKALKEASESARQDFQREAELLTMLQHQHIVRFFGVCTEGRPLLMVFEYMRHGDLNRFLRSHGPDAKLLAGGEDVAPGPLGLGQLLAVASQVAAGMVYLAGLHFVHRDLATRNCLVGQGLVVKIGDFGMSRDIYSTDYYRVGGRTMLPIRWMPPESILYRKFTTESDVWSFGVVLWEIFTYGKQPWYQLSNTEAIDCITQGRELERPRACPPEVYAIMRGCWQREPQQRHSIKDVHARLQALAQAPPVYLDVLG

As usually defined, the IC50 is the concentration that gives 50% inhibition. Regarding `Cc1ccc(N(C)S(=O)(=O)NC(=O)c2cnc3ccc(N4C[C@@H](F)C[C@@H]4c4cc(F)ccc4O[C@@H]4CCOC4)cn23)nn1` [Example 78, 6-((2R,4S)-4-fluoro-2-(5-fluoro-2-(((R)-tetrahydrofuran-3-yl)oxy)phenyl)pyrrolidin-1-yl)-N—(N-methyl-N-(6-methylpyridazin-3-yl)sulfamoyl)imidazo[1,2-a]pyridine-3-carboxamide], the IC50 under setting [1] is not above 50 nM. Same read-out and setting: the value for `CCCN(C)S(=O)(=O)NC(=O)c1cnc2ccc(N3CCC[C@@H]3c3cc(F)ccc3OC)cn12` [Example 53] was 50 to 100 nM; that for `O=C(Nc1cnc2ccc(N3CCCC3c3cc(F)ccc3F)cn12)N1CC[C@H](O)C1` (some centres unmarked) [Example 2, (3 S)—N-(6-(2-(2,5-difluorophenyl)pyrrolidin-1-yl)imidazo[1,2-a]pyridin-3-yl)-3-hydroxypyrrolidine-1-carboxamide] was 100 to 500 nM; that for `CCN(C)S(=O)(=O)NC(=O)c1cnc2ccc(N3C[C@@H](F)C[C@@H]3c3cc(F)ccc3O[C@@H]3CCOC3)cn12` [Example 60, N-(N-ethyl-N-methylsulfamoyl)-6-((2R,4S)-4-fluoro-2-(5-fluoro-2-(((R)-tetrahydrofuran-3-yl)oxy)phenyl)pyrrolidin-1-yl)imidazo[1,2-a]pyridine-3-carboxamide] was not above 50 nM. The same measure, in the same setting: to `CC(C)(C)S(=O)(=O)NC(=O)c1cnc2ccc(N3CCC[C@@H]3c3cc(F)ccc3F)cn12` [Example 31, (R)—N-(tert-butylsulfonyl)-6-(2-(2,5-difluorophenyl)pyrrolidin-1-yl)imidazo[1,2-a]pyridine-3-carboxamide] belongs 100 to 500 nM; to `CN(CCF)S(=O)(=O)NC(=O)c1cnc2ccc(N3C[C@@H](F)C[C@@H]3c3cc(F)ccc3OC3CCOCC3)cn12` [Example 99, 6-((2R,4S)-4-fluoro-2-(5-fluoro-2-((tetrahydro-2H-pyran-4-yl)oxy)phenyl)pyrrolidin-1-yl)-N—(N-(2-fluoroethyl)-N-methylsulfamoyl)imidazo[1,2-a]pyridine-3-carboxamide], not above 50 nM; to `CC(C)(C)S(=O)(=O)NC(=O)c1cnc2ccc(N3C[C@@H](F)C[C@@H]3c3cc(F)ccc3O[C@@H]3CCOC3)cn12` [Example 59, N-(tert-butylsulfonyl)-6-((2R,4S)-4-fluoro-2-(5-fluoro-2-(((R)-tetrahydrofuran-3-yl)oxy)phenyl)pyrrolidin-1-yl)imidazo[1,2-a]pyridine-3-carboxamide], not above 50 nM. Take `CCN(CCF)S(=O)(=O)NC(=O)c1cnc2ccc(N3CCC[C@@H]3c3cc(F)ccc3F)cn12` [Example 40, (R)-6-(2-(2,5-difluorophenyl)pyrrolidin-1-yl)-N-(N-ethyl-N-(2-fluoroethyl)sulfamoyl)imidazo[1,2-a]pyridine-3-carboxamide]: under setting [1], the concentration for half-maximal inhibition (IC50) fell in the range of 50 to 100 nM. With `O=C(NN1CCCCC1)c1cnc2ccc(N3CCC[C@@H]3c3cc(F)ccc3F)cn12` [Example 27, (R)-6-(2-(2,5-difluorophenyl)pyrrolidin-1-yl)-N-(piperidin-1-yl)imidazo[1,2-a]pyridine-3-carboxamide], under setting [2], the IC50 was in the range of 500 to 1000 nM. Regarding `CN(c1ccn(C)n1)S(=O)(=O)NC(=O)c1cnc2ccc(N3C[C@@H](F)C[C@@H]3c3cc(F)ccc3OC3CCOCC3)cn12` [Example 96, 6-((2R,4S)-4-fluoro-2-(5-fluoro-2-((tetrahydro-2H-pyran-4-yl)oxy)phenyl)pyrrolidin-1-yl)-N—(N-methyl-N-(1-methyl-1H-pyrazol-3-yl)sulfamoyl)imidazo[1,2-a]pyridine-3-carboxamide], under setting [1], the IC50 was not above 50 nM. Still for that read-out and setting: to `CCN(C)S(=O)(=O)NC(=O)c1cnc2ccc(N3CCC[C@@H]3c3cc(F)ccc3OC3CCOCC3)cn12` [Example 80, (R)—N—(N-ethyl-N-methylsulfamoyl)-6-(2-(5-fluoro-2-((tetrahydro-2H-pyran-4-yl)oxy)phenyl)pyrrolidin-1-yl)imidazo[1,2-a]pyridine-3-carboxamide] belongs 50 to 100 nM. Turning to `O=C(NS(=O)(=O)N(CC1CC1)c1cccnc1)c1cnc2ccc(N3CCC[C@@H]3c3cc(F)ccc3F)cn12` [Example 44, (R)-N-(N-(cyclopropylmethyl)-N-(pyridin-3-yl)sulfamoyl)-6-(2-(2,5-difluorophenyl)pyrrolidin-1-yl)imidazo[1,2-a]pyridine-3-carboxamide], the IC50 under setting [1] lay within 50 to 100 nM.

With `CN(c1ccn(C)n1)S(=O)(=O)NC(=O)c1cnc2ccc(N3CCC[C@@H]3c3cc(F)ccc3OC3CCOCC3)cn12` [Example 91, (R)-6-(2-(5-fluoro-2-((tetrahydro-2H-pyran-4-yl)oxy)phenyl)pyrrolidin-1-yl)-N—(N-methyl-N-(1-methyl-1H-pyrazol-3-yl)sulfamoyl)imidazo[1,2-a]pyridine-3-carboxamide], the IC50 under setting [1] was 50 to 100 nM. Still for that read-out and setting: the value for `O=C(NS(=O)(=O)c1ccc(-n2ccnc2)nc1)c1cnc2ccc(N3CCC[C@@H]3c3cc(F)ccc3F)cn12` [Example 46, (R)-N-((6-(1H-imidazol-1-yl)pyridin-3-yl)sulfonyl)-6-(2-(2,5-difluorophenyl)pyrrolidin-1-yl)imidazo[1,2-a]pyridine-3-carboxamide] was 50 to 100 nM; that for `COCCN(C)S(=O)(=O)NC(=O)c1cnc2ccc(N3CCC[C@@H]3c3cc(F)ccc3O[C@@H]3CCOC3)cn12` [Example 105, 6-((R)-2-(5-fluoro-2-(((R)-tetrahydrofuran-3-yl)oxy)phenyl)pyrrolidin-1-yl)-N—(N-(2-methoxyethyl)-N-methylsulfamoyl)imidazo[1,2-a]pyridine-3-carboxamide] was not above 50 nM. `CC1(O)CN(C(=O)c2cnc3ccc(N4CCC[C@@H]4c4cc(F)ccc4F)cn23)C1` [Example 26, (R)-(6-(2-(2,5-difluorophenyl)pyrrolidin-1-yl)imidazo[1,2-a]pyridin-3-yl)(3-hydroxy-3-methylazetidin-1-yl)methanone]: the concentration for half-maximal inhibition (IC50) under setting [2] is 500 to 1000 nM. In the case of `O=C(Nc1ccc(F)cc1)c1cnc2ccc(N3CCCC3c3cc(F)ccc3F)cn12` (centres unmarked) [Example 1, 6-(2-(2,5-difluorophenyl)pyrrolidin-1-yl)-N-(4-fluorophenyl)imidazo[1,2-a]pyridine-3-carboxamide], the IC50 under setting [1] was not above 50 nM.

Consider `CCN(CC)S(=O)(=O)NC(=O)c1cnc2ccc(N3C[C@@H](F)C[C@@H]3c3cc(F)ccc3O[C@@H]3CCOC3)cn12` [Example 74, N—(N,N-diethylsulfamoyl)-6-((2R,4S)-4-fluoro-2-(5-fluoro-2-(((R)-tetrahydrofuran-3-yl)oxy)phenyl)pyrrolidin-1-yl)imidazo[1,2-a]pyridine-3-carboxamide], for which, under setting [1], the IC50 was not above 50 nM. `CN(c1ccn(C)n1)S(=O)(=O)NC(=O)c1cnc2ccc(N3CCC[C@@H]3c3cc(F)ccc3F)cn12` [Example 90, (R)-6-(2-(2,5-difluorophenyl)pyrrolidin-1-yl)-N—(N-methyl-N-(1-methyl-1H-pyrazol-3-yl)sulfamoyl)imidazo[1,2-a]pyridine-3-carboxamide]: under setting [1], the IC50 was not above 50 nM. Still for that read-out and setting: to `CN(c1ccccn1)S(=O)(=O)NC(=O)c1cnc2ccc(N3CCC[C@@H]3c3cc(F)ccc3F)cn12` [Example 47, (R)-6-(2-(2,5-difluorophenyl)pyrrolidin-1-yl)-N-(N-methyl-N-(pyridin-2-yl)sulfamoyl)imidazo[1,2-a]pyridine-3-carboxamide] belongs not above 50 nM; to `COCCN(C)S(=O)(=O)NC(=O)c1cnc2ccc(N3C[C@@H](F)C[C@@H]3c3cc(F)ccc3O[C@@H]3CCOC3)cn12` [Example 76, 6-((2R,4S)-4-fluoro-2-(5-fluoro-2-(((R)-tetrahydrofuran-3-yl)oxy)phenyl)pyrrolidin-1-yl)-N—(N-(2-methoxyethyl)-N-methylsulfamoyl)imidazo[1,2-a]pyridine-3-carboxamide], not above 50 nM.

Consider `O=C(NS(=O)(=O)c1ccc(-n2cncn2)cc1)c1cnc2ccc(N3CCC[C@@H]3c3cc(F)ccc3F)cn12` [Example 35, (R)-N-((4-(1H-1,2,4-triazol-1-yl)phenyl)sulfonyl)-6-(2-(2,5-difluorophenyl)pyrrolidin-1-yl)imidazo[1,2-a]pyridine-3-carboxamide], for which the IC50 under setting [1] was in the range of 50 to 100 nM.

As for `CN(CC(F)(F)F)S(=O)(=O)NC(=O)c1cnc2ccc(N3CCC[C@@H]3c3cc(F)ccc3F)cn12` [Example 41, (R)-6-(2-(2,5-difluorophenyl)pyrrolidin-1-yl)-N-(N-methyl-N-(2,2,2-trifluoroethyl)sulfamoyl)imidazo[1,2-a]pyridine-3-carboxamide], under setting [1], the IC50 is not above 50 nM. On the same count and under the same terms, the value for `O=C(NC1CCOCC1)c1cnc2ccc(N3CCC[C@@H]3c3cc(F)ccc3F)cn12` [Example 30, (R)-6-(2-(2,5-difluorophenyl)pyrrolidin-1-yl)-N-(tetrahydro-2H-pyran-4-yl)imidazo[1,2-a]pyridine-3-carboxamide] was 100 to 500 nM. The same measure, in the same setting: the value for `CC(CO)(CO)NC(=O)c1cnc2ccc(N3CCC[C@@H]3c3cc(F)ccc3F)cn12` [Example 24, (R)-6-(2-(2,5-difluorophenyl)pyrrolidin-1-yl)-N-(1,3-dihydroxy-2-methylpropan-2-yl)imidazo[1,2-a]pyridine-3-carboxamide] was 100 to 500 nM; that for `O=C(c1cnc2ccc(N3CCCC3c3cc(F)ccc3F)cn12)N1CC[C@H](O)C1` (stereo partly drawn) [Example 3, (6-(2-(2,5-difluorophenyl)pyrrolidin-1-yl)imidazo[1,2-a]pyridin-3-yl)((S)-3-hydroxypyrrolidin-1-yl)methanone] was not above 50 nM.
